According to the kinase profiling compilation of Christmann-Franck et al. (2016):

Experiments:
Assay in all cases: radiometric filter-binding kinase assay, Kinase HotSpot
Details in all cases: compound 0.5 µM; ATP 10 µM
[1] = system: FLT4 (human), P35916 [Q890H]
ROS1 (human) = ROS1 (human) (UniProt P08922)
NEK7 (human) = NEK7 (human) (UniProt Q8TDX7)
CSNK1G1 (human) = CSNK1G1 (human) (UniProt Q9HCP0)
[2] = system: PRKCQ (human), Q04759 [P330L]
AURKB (human) = AURKB (human) (UniProt Q96GD4)
STK25 (human) = STK25 (human) (UniProt O00506)
IRAK1 (human) = IRAK1 (human) (UniProt P51617)
KIT (human) = KIT (human) (UniProt P10721)
NLK (human) = NLK (human) (UniProt Q9UBE8)
FLT1 (human) = FLT1 (human) (UniProt P17948)
CAMK2G (human) = CAMK2G (human) (UniProt Q13555)
HCK (human) = HCK (human) (UniProt P08631)
CLK2 (human) = CLK2 (human) (UniProt P49760)
CAMK1 (human) = CAMK1 (human) (UniProt Q14012)
DYRK3 (human) = DYRK3 (human) (UniProt O43781)
AURKC (human) = AURKC (human) (UniProt Q9UQB9)
PNCK (human) = PNCK (human) (UniProt Q6P2M8)
MYLK (human) = MYLK (human) (UniProt Q15746)
ITK (human) = ITK (human) (UniProt Q08881)
DAPK1 (human) = DAPK1 (human) (UniProt P53355)
RPS6KB1 (human) = RPS6KB1 (human) (UniProt P23443)
SGK2 (human) = SGK2 (human) (UniProt Q9HBY8)
PTK2B (human) = PTK2B (human) (UniProt Q14289)
RPS6KA4 KD2 (human) = RPS6KA4 KD2 (human) (UniProt O75676)
NEK2 (human) = NEK2 (human) (UniProt P51955)
ACVRL1 (human) = ACVRL1 (human) (UniProt P37023)
PRKCZ (human) = PRKCZ (human) (UniProt Q05513)
TYRO3 (human) = TYRO3 (human) (UniProt Q06418)
CHEK1 (human) = CHEK1 (human) (UniProt O14757)
[3] = system: MAP2K6 (human), P52564 [S207E/T211E]
PAK3 (human) = PAK3 (human) (UniProt O75914)
FGR (human) = FGR (human) (UniProt P09769)
MST1R (human) = MST1R (human) (UniProt Q04912)
PRKCA (human) = PRKCA (human) (UniProt P17252)
MELK (human) = MELK (human) (UniProt Q14680)
VRK1 (human) = VRK1 (human) (UniProt Q99986)
CDK1 CCNA2 (human) = CDK1 CCNA2 (human) (UniProt P06493+P20248)
EPHA3 (human) = EPHA3 (human) (UniProt P29320)
ADRBK2 (human) = ADRBK2 (human) (UniProt P35626)
PRKCI (human) = PRKCI (human) (UniProt P41743)
IRAK4 (human) = IRAK4 (human) (UniProt Q9NWZ3)

Chain of RPS6KB1 (human) (P23443 whole entry, looked up): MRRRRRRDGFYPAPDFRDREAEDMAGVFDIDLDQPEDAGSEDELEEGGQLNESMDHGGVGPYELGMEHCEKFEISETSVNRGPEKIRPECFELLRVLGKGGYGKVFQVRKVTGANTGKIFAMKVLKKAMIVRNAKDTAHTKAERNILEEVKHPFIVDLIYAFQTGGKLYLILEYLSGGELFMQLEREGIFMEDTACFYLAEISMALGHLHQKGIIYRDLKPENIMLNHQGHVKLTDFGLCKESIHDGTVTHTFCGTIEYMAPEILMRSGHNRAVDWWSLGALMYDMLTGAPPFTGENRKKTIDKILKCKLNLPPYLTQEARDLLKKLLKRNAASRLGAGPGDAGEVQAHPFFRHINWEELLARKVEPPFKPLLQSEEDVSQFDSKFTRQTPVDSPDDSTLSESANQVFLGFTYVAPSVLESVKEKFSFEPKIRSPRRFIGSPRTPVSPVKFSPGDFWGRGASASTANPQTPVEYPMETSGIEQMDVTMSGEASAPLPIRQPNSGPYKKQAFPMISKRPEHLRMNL
Chain of CAMK1 (human) (Q14012 whole entry, looked up): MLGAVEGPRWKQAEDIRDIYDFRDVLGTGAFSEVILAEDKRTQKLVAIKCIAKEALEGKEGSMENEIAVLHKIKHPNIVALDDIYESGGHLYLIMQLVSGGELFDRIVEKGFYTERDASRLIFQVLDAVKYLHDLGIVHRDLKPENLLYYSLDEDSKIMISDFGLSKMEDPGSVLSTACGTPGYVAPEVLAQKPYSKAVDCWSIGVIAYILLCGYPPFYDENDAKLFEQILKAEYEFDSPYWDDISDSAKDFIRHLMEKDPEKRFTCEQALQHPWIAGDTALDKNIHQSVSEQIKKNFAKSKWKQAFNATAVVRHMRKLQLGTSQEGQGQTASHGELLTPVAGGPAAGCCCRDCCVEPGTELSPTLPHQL
Chain of FGR (human) (P09769 whole entry, looked up): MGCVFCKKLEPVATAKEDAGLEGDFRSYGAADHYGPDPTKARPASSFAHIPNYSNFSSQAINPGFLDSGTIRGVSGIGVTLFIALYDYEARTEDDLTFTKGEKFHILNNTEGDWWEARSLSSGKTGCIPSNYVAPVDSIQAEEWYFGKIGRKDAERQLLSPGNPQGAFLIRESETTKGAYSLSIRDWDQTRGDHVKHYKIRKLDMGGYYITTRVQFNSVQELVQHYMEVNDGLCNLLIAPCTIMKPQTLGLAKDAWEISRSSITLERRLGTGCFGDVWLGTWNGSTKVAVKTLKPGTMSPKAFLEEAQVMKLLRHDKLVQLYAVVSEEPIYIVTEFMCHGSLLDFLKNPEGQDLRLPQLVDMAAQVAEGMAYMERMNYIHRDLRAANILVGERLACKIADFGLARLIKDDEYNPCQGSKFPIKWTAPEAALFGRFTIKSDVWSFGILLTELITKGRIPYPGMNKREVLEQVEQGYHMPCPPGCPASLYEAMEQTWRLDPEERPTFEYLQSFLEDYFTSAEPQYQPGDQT
Chain of NEK2 (human) (P51955 whole entry, looked up): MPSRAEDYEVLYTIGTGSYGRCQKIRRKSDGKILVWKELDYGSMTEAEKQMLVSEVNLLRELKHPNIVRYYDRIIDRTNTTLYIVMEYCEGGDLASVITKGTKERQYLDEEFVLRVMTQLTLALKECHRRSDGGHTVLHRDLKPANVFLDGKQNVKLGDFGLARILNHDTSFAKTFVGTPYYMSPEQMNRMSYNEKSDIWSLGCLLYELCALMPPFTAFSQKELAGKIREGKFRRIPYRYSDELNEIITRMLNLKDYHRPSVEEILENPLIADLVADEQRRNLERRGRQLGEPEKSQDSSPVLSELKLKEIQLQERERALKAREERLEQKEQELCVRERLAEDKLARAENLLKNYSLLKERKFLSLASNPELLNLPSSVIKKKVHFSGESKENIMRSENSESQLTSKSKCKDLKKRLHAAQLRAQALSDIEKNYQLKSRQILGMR
Chain of RPS6KA4 KD2 (human) (O75676 whole entry, looked up): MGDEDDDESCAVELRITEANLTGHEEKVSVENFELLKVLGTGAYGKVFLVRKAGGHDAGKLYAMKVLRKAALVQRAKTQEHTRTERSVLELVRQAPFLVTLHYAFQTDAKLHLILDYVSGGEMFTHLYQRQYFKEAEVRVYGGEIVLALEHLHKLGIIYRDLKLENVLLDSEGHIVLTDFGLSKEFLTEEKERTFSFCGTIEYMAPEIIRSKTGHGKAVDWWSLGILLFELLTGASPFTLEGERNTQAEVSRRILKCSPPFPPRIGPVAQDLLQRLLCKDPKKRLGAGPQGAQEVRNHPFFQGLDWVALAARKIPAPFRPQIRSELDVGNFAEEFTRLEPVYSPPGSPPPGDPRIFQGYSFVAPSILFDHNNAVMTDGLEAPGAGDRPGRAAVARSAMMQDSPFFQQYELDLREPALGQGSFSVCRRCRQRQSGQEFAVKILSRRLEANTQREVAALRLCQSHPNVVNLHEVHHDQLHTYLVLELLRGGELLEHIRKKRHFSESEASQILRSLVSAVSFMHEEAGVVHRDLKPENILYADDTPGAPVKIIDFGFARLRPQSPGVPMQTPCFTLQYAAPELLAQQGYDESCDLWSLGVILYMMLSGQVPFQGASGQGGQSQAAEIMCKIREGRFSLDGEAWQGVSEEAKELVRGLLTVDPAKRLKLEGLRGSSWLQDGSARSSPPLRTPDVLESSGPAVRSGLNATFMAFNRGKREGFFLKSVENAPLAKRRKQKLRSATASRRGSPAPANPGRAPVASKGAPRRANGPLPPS
Chain of CHEK1 (human) (O14757 whole entry, looked up): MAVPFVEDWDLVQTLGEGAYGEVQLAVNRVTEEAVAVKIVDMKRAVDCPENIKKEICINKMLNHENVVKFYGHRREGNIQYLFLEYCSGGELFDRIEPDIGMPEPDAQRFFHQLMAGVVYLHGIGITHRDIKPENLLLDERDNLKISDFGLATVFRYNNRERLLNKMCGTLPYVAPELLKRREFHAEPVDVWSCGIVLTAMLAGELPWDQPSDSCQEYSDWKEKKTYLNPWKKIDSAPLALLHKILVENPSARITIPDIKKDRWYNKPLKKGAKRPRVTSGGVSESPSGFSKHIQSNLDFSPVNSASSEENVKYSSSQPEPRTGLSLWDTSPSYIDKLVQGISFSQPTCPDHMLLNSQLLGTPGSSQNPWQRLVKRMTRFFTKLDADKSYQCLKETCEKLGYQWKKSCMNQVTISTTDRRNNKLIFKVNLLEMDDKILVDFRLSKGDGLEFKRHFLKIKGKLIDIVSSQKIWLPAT
Chain of EPHA3 (human) (P29320 whole entry, looked up): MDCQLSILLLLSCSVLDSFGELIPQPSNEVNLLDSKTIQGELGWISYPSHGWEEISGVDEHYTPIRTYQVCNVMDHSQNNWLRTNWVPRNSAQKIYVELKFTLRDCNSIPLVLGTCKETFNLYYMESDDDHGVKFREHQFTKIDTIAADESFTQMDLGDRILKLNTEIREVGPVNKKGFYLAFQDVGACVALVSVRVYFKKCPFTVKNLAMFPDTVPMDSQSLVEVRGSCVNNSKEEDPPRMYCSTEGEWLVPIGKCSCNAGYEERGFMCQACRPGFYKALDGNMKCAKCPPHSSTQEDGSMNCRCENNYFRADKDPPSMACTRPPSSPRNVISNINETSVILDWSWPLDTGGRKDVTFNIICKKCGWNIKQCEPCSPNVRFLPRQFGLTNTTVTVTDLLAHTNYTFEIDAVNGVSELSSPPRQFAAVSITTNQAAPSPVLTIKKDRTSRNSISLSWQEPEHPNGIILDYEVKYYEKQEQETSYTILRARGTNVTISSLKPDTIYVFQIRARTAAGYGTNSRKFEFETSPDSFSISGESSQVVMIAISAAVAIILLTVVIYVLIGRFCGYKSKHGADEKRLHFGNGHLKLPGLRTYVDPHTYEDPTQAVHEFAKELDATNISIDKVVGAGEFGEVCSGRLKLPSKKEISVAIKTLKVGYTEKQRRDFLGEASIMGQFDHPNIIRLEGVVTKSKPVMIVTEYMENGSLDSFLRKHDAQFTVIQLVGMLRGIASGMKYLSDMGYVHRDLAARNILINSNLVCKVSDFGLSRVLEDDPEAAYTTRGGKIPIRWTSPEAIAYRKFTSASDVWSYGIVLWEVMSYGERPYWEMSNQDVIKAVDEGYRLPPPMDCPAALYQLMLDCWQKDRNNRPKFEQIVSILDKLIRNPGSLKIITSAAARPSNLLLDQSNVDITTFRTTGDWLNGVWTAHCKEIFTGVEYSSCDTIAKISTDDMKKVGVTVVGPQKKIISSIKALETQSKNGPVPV

`CCCCc1c(-c2ccc(OC)cc2)[nH]c2nccnc12` gave a residual activity [1] of 81.1%, a residual activity (ROS1 (human)) of 37.5% and a residual activity (NEK7 (human)) of 107%. For the same compound, the residual activity (CSNK1G1 (human)) was 93.3%, the residual activity [2] was 107% and the residual activity (AURKB (human)) was 64.5%. It also gave a residual activity (STK25 (human)) of 90.3%, a residual activity (IRAK1 (human)) of 64.3% and a residual activity (KIT (human)) of 82.9%. The residual activity (NLK (human)) was 88.4%, the residual activity (FLT1 (human)) was 103% and the residual activity (CAMK2G (human)) was 107%. The residual activity (HCK (human)) was 94.4%, the residual activity (CLK2 (human)) was 85.3% and the residual activity (CAMK1 (human)) was 90.9%. The residual activity (DYRK3 (human)) was 96.1%, the residual activity (AURKC (human)) was 55.8% and the residual activity (PNCK (human)) was 120%. It also gave a residual activity (MYLK (human)) of 96.8%, a residual activity (ITK (human)) of 99.4% and a residual activity (DAPK1 (human)) of 90.6%. It also gave a residual activity (RPS6KB1 (human)) of 108%, a residual activity (SGK2 (human)) of 116% and a residual activity (PTK2B (human)) of 100%. It also gave a residual activity (RPS6KA4 KD2 (human)) of 89.4%, a residual activity (NEK2 (human)) of 115% and a residual activity (ACVRL1 (human)) of 77%. It also gave a residual activity (PRKCZ (human)) of 93.9%, a residual activity (TYRO3 (human)) of 98.6% and a residual activity (CHEK1 (human)) of 93.1%. It also gave a residual activity [3] of 96%, a residual activity (PAK3 (human)) of 106% and a residual activity (FGR (human)) of 57.1%. The residual activity (MST1R (human)) was 104%, the residual activity (PRKCA (human)) was 92.7% and the residual activity (MELK (human)) was 84.4%. For the same compound, the residual activity (VRK1 (human)) was 95.5%, the residual activity (CDK1 CCNA2 (human)) was 65.4% and the residual activity (EPHA3 (human)) was 91.9%. The residual activity (ADRBK2 (human)) was 95.6%, the residual activity (PRKCI (human)) was 72.8% and the residual activity (IRAK4 (human)) was 163%.

`O=C1c2ccccc2-c2nc3nnnn3nc21` showed a residual activity [1] of 5.79%, a residual activity (ROS1 (human)) of 91.1% and a residual activity (NEK7 (human)) of 83.6%. It also gave a residual activity (CSNK1G1 (human)) of 85.2%, a residual activity [2] of 83% and a residual activity (AURKB (human)) of 84.7%. For the same compound, the residual activity (STK25 (human)) was 101%, the residual activity (IRAK1 (human)) was 77.6% and the residual activity (KIT (human)) was 22.2%. For the same compound, the residual activity (NLK (human)) was 98.2%, the residual activity (FLT1 (human)) was 3.06% and the residual activity (CAMK2G (human)) was 91.1%. It also gave a residual activity (HCK (human)) of 84%, a residual activity (CLK2 (human)) of 92.1% and a residual activity (CAMK1 (human)) of 68.7%. For the same compound, the residual activity (DYRK3 (human)) was 88.6%, the residual activity (AURKC (human)) was 95.4% and the residual activity (PNCK (human)) was 83.4%. The residual activity (MYLK (human)) was 94.1%, the residual activity (ITK (human)) was 71.5% and the residual activity (DAPK1 (human)) was 92.2%. For the same compound, the residual activity (RPS6KB1 (human)) was 85.8%, the residual activity (SGK2 (human)) was 75.1% and the residual activity (PTK2B (human)) was 52.1%. The residual activity (RPS6KA4 KD2 (human)) was 72.2%, the residual activity (NEK2 (human)) was 77.7% and the residual activity (ACVRL1 (human)) was 105%. It also gave a residual activity (PRKCZ (human)) of 99.1%, a residual activity (TYRO3 (human)) of 33.3% and a residual activity (CHEK1 (human)) of 112%. The residual activity [3] was 85.7%, the residual activity (PAK3 (human)) was 97.1% and the residual activity (FGR (human)) was 79.8%. The residual activity (MST1R (human)) was 93.6%, the residual activity (PRKCA (human)) was 91.4% and the residual activity (MELK (human)) was 55.7%. For the same compound, the residual activity (VRK1 (human)) was 90.5%, the residual activity (CDK1 CCNA2 (human)) was 48.9% and the residual activity (EPHA3 (human)) was 81.6%. For the same compound, the residual activity (ADRBK2 (human)) was 106%, the residual activity (PRKCI (human)) was 85.7% and the residual activity (IRAK4 (human)) was 96.9%.

For `CC(C)(C)c1cc(C=C(C#N)C#N)cc(Br)c1O`, the residual activity [1] was 102%, the residual activity (ROS1 (human)) was 93.2% and the residual activity (NEK7 (human)) was 89.5%. For the same compound, the residual activity (CSNK1G1 (human)) was 106%, the residual activity [2] was 98% and the residual activity (AURKB (human)) was 97.1%. It also gave a residual activity (STK25 (human)) of 102%, a residual activity (IRAK1 (human)) of 105% and a residual activity (KIT (human)) of 97.9%. It also gave a residual activity (NLK (human)) of 93.6%, a residual activity (FLT1 (human)) of 92.5% and a residual activity (CAMK2G (human)) of 104%. For the same compound, the residual activity (HCK (human)) was 66.1%, the residual activity (CLK2 (human)) was 104% and the residual activity (CAMK1 (human)) was 97.5%. The residual activity (DYRK3 (human)) was 102%, the residual activity (AURKC (human)) was 87.6% and the residual activity (PNCK (human)) was 107%. The residual activity (MYLK (human)) was 90.6%, the residual activity (ITK (human)) was 98.4% and the residual activity (DAPK1 (human)) was 85.9%. The residual activity (RPS6KB1 (human)) was 91.3%, the residual activity (SGK2 (human)) was 120% and the residual activity (PTK2B (human)) was 99.3%. It also gave a residual activity (RPS6KA4 KD2 (human)) of 90.9%, a residual activity (NEK2 (human)) of 96% and a residual activity (ACVRL1 (human)) of 105%. For the same compound, the residual activity (PRKCZ (human)) was 102%, the residual activity (TYRO3 (human)) was 110% and the residual activity (CHEK1 (human)) was 100%. It also gave a residual activity [3] of 107%, a residual activity (PAK3 (human)) of 96.9% and a residual activity (FGR (human)) of 75.4%. It also gave a residual activity (MST1R (human)) of 105%, a residual activity (PRKCA (human)) of 81.4% and a residual activity (MELK (human)) of 91.6%. For the same compound, the residual activity (VRK1 (human)) was 86.4%, the residual activity (CDK1 CCNA2 (human)) was 87.8% and the residual activity (EPHA3 (human)) was 102%. The residual activity (ADRBK2 (human)) was 98%, the residual activity (PRKCI (human)) was 100% and the residual activity (IRAK4 (human)) was 182%.

In the case of `Fc1ccc(-c2nc3n(c2-c2ccncc2)CCS3)cc1`, the residual activity [1] is reported as 112%, the residual activity (ROS1 (human)) is reported as 95.8% and the residual activity (NEK7 (human)) is reported as 105%. It also gave a residual activity (CSNK1G1 (human)) of 86.6%, a residual activity [2] of 123% and a residual activity (AURKB (human)) of 98.5%. The residual activity (STK25 (human)) was 104%, the residual activity (IRAK1 (human)) was 125% and the residual activity (KIT (human)) was 92.8%. It also gave a residual activity (NLK (human)) of 41.1%, a residual activity (FLT1 (human)) of 84.1% and a residual activity (CAMK2G (human)) of 90.5%. The residual activity (HCK (human)) was 101%, the residual activity (CLK2 (human)) was 105% and the residual activity (CAMK1 (human)) was 107%. For the same compound, the residual activity (DYRK3 (human)) was 103%, the residual activity (AURKC (human)) was 102% and the residual activity (PNCK (human)) was 90.3%. It also gave a residual activity (MYLK (human)) of 105%, a residual activity (ITK (human)) of 97.5% and a residual activity (DAPK1 (human)) of 100%. It also gave a residual activity (RPS6KB1 (human)) of 108%, a residual activity (SGK2 (human)) of 105% and a residual activity (PTK2B (human)) of 106%. It also gave a residual activity (RPS6KA4 KD2 (human)) of 88.8%, a residual activity (NEK2 (human)) of 115% and a residual activity (ACVRL1 (human)) of 97.9%. The residual activity (PRKCZ (human)) was 90.6%, the residual activity (TYRO3 (human)) was 104% and the residual activity (CHEK1 (human)) was 95.9%. The residual activity [3] was 104%, the residual activity (PAK3 (human)) was 104% and the residual activity (FGR (human)) was 92.6%. It also gave a residual activity (MST1R (human)) of 97.3%, a residual activity (PRKCA (human)) of 113% and a residual activity (MELK (human)) of 102%. For the same compound, the residual activity (VRK1 (human)) was 86.8%, the residual activity (CDK1 CCNA2 (human)) was 94.7% and the residual activity (EPHA3 (human)) was 112%. For the same compound, the residual activity (ADRBK2 (human)) was 95%, the residual activity (PRKCI (human)) was 90.9% and the residual activity (IRAK4 (human)) was 109%.
